From patent US20140023611A1 (priority 2010, published 2014)
pIC50: −log10 of the molar value.

Assays:
rat NaP2b (SLC34A2) [1] = biological target: T1, rat NaP2b (SLC34A2) (Rattus norvegicus, UniProt Q9JJ09); experiment: NaP2b-mediated Pi transport (33P uptake) in transfected HEK293 cells, rat NaP2b; assay type: cell-based; conditions: Structure (V) examples, Table 2; rat NaP2b, HEK293; read-out: pIC50 Range (converted)
T1 construct: host or cells: HEK293
T1 sequence (Q9JJ09 1-695): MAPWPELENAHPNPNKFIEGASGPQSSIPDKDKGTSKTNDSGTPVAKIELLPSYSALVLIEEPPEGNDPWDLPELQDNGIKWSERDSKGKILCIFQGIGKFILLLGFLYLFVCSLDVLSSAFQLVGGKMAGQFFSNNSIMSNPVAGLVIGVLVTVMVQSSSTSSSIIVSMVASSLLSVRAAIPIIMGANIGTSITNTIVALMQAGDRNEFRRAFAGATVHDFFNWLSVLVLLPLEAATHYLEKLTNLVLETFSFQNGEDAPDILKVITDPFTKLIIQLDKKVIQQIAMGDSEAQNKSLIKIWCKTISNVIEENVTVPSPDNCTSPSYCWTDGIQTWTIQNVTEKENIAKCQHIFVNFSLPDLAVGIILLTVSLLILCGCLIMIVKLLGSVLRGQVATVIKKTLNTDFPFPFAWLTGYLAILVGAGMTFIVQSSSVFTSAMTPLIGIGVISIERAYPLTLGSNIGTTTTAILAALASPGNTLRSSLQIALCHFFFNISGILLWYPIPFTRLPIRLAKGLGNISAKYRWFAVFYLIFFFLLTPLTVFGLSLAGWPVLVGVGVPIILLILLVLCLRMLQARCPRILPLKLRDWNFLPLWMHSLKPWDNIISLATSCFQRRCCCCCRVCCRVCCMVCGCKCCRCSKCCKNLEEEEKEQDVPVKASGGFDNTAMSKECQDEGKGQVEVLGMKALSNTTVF
Method: HEK293 cells were obtained from the American Type Culture collection and propagated per their instructions. Expression clones for rat and human NaP2b (SLC34A2) were obtained from Open Biosystems (Catalog numbers MRN1768-9510282, and MHS1010-99823026, respectively). The sequence of the human protein was mutated to insert a threonine after residue 37, and to introduce a N39D mutation.
(§1) The rate of phosphate (Pi) uptake into HEK293 cells was measured using a modification of the method described by Mohrmann et al. (Mohrmann, I., Mohrmann, M., Biber, J., and Murer, H. (1986) Am. J. Phys. 250(3 Pt 1):G323-30.) Transfected HEK293 cells were treated with a pharmacological agent to minimize endogenous PiT-mediated phosphate transport activity, such that the only remaining sodium-dependent phosphate transport activity is that which was bestowed by introduction of the NaP2b genes.
(§2) Cells were seeded into 96-well plates at 25,000 cells/well and cultured overnight. Lipofectamine 2000 (Invitrogen) was used to introduce the NaP2b cDNA, and the cells were allowed to approach confluence during a second overnight incubation. […] Cells were then overlayed with either choline uptake buffer or sodium uptake buffer (14 mM Tris, 137 mM sodium chloride, 5.4 mM KCl, 2.8 mM CaCl2, 1.2 mM MgSO4, 100 uM KH2PO4, PiT-silencing agent, 1 mg/mL Bovine Serum Albumin, pH 7.4) containing 6-9 uCi/mL ^33P orthophosphoric acid (Perkin Elmer) and test compound. Each compound was tested at twelve concentrations ranging from 0.1 nM to 30 uM. Assays were run in duplicate.
After incubation for 3-30 minutes at room temperature, assay mixtures were removed, and the cells were washed twice with ice cold stop solution (137 mM sodium chloride, 14 mM Tris, pH 7.4). Cells were lysed by addition of 20 μL 0.1% Tween 80 followed by 100 μL scintillation fluid, and counted using a TopCount (Perkin Elmer).
pIC50 (the negative log of the IC50) values of the test compounds were calculated using GraphPad Prism.
HEK293 cells were obtained from the American Type Culture collection and propagated per their instructions. Expression clones for rat and mouse NaP2b (SLC34A2) cDNAs were obtained from Open Biosystems (Catalog numbers MRN1768-9510282 and MMM1013-98478398 respectively).
as §1, with “phosphate” for “phosphate (Pi)”
as §2, with “agent, 0.1% wt/v bovine serum albumin,” for “agent, 1 mg/mL Bovine Serum Albumin,”, “Each compounds” for “Each compound”
After incubation for 3-30 minutes at room temperature, assay mixtures were removed, and the cells were washed twice with ice cold stop solution (137 mM sodium chloride, 14 mM Tris, pH 7.4).

[2] = tested on: uptake of phosphate from the intestine; experiment: In vivo assay: bolus phosphorus (phosphate) challenge; design: species or system Sprague-Dawley rats; conditions: Structure (V) examples, Table 4, rat, oral 30 mg/kg
Method: By pretreating animals with a low phosphorus diet followed by the subsequent dosing of a phosphorus bolus, serum phosphorus levels were monitored after 30 minutes as a surrogate for intestinal phosphorus absorption. […] The in vivo bolus phosphorus challenge model used here mimics this model in rats.
Male, 7-week-old Sprague-Dawley rats (Charles-River laboratories international, Hollister, Calif.) were allowed to acclimatize for a minimum of 3 days before switching to a synthetic low-phosphorus diet (TD.85010, Harlan Teklad, Madison, Wis.) which contains 0.1% phosphorus and 0.6% calcium. At day 5, testing compounds or vehicle alone (as indicated) were orally administered at the indicated dose in a volume of 5 ml/kg, followed by a bolus gavage of monobasic sodium phosphate (1 mmol in 1 ml) 15 min after compound dosing. Serum was collected via retroorbital bleeding 30 min post phosphate bolus and phosphate levels were determined utilizing an ACE ALERA blood chemistry analyzer (Alfa Wassermann Diagnostic Technologies, West Caldwell, N.J.). […]
Male, 7-week-old Sprague-Dawley rats (Charles-River laboratories international, Hollister, Calif.) were allowed to acclimate for a minimum of 3 days before switching to a synthetic low-phosphorus diet (TD.85010, Harlan Teklad, Madison, Wis.) which contains 0.1% phosphorus and 0.6% calcium. At day 5, testing compounds or vehicle alone (as indicated) were orally administered at the indicated dose in a volume of 5 ml/kg, followed by a bolus gavage of monobasic sodium phosphate (1 mmol in 1 ml) 15 min after compound dosing. Serum was collected via retroorbital bleeding 30 min post phosphate bolus and phosphate levels were determined utilizing an ACE ALERA blood chemistry analyzer (Alfa Wassermann Diagnostic Technologies, West Caldwell, N.J.).
Serum was collected 30 minutes after gavage, and phosphate levels measured. […] The in vivo bolus phosphate challenge model used here mimics this model in rats.
Male, 7-week-old Sprague-Dawley rats (Charles-River laboratories international, Hollister, Calif.) were allowed to acclimatize for a minimum of 3 days before switching to a low-phosphorus diet (TD.85010, Harlan Teklad, Madison, Wis.) which contains 0.1% phosphorus and 0.6% calcium. At day 5, testing compounds or vehicle alone (as indicated) were orally administered at the indicated dose in a volume of 5 ml/kg, followed by a bolus gavage of monobasic sodium phosphate (1 mmol in 1 ml) 15 min after compound dosing. Serum was collected via retroorbital bleeding 30 min post phosphate bolus and serum phosphate levels were determined utilizing an ACE ALERA blood chemistry analyzer (Alfa Wassermann Diagnostic Technologies, West Caldwell, N.J.).
The representative data on effects of test compounds on serum phosphate levels are shown in Table 4 (data are expressed as mean±SD, with 6 animals per data point). The differences between groups were evaluated by one-way analysis of variance with Dunnett's post hoc tests.

NaPi2b = experiment: Competition with phosphate: Pi uptake assay repeated at 2.1 vs 0.1 mM phosphate; assay type: cell-based; conditions: potency at 2.1 vs 0.1 mM phosphate
Source text: For example, a phosphate uptake assay can be performed and the IC50 values for a compound at different phosphate concentrations can be determined (e.g., “Enzyme kinetics”, I. Segel, 1975, John-Wiley & Sons, p. 123). IC50 values for non-competitive inhibitors will remain the same or similar with respect to the phosphate concentration, whereas IC50 values for competitive inhibitors will increase (i.e lose potency) as phosphate concentration increases.
To ascertain if an inhibitor was competitive for binding with phosphate, the procedure was repeated, but raising the concentration of the substrate in the assay mixture from 0.1 to 2.1 mM phosphate.

rat NaP2b (SLC34A2) [3] = biological target: T1, rat NaP2b (SLC34A2); experiment: Inhibition of NaP2b-mediated Pi (33P) uptake in transfected HEK293 cells, rat NaP2b; assay type: cell-based; conditions: 33P Pi uptake, 0.1 mM phosphate, value given as pIC50 range
How it was run: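 HEK293 cells were transiently transfected with NaP2b cDNA using Lipofectamine and grown near confluence. Compounds were tested at twelve concentrations from 0.1 nM to 30 uM in duplicate, and 33P-phosphate uptake was counted by scintillation after lysis. Results are expressed as pIC50.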

human NaP2b (SLC34A2) = biological target: T2, human NaP2b (SLC34A2) (Homo sapiens, UniProt O95436); experiment: Inhibition of NaP2b-mediated Pi (33P) uptake in transfected HEK293 cells, human NaP2b; assay type: cell-based; conditions: read-out: pIC50 range for human NaP2b (converted)
T2 construct: host or cells: HEK293
T2 sequence (O95436 1-690): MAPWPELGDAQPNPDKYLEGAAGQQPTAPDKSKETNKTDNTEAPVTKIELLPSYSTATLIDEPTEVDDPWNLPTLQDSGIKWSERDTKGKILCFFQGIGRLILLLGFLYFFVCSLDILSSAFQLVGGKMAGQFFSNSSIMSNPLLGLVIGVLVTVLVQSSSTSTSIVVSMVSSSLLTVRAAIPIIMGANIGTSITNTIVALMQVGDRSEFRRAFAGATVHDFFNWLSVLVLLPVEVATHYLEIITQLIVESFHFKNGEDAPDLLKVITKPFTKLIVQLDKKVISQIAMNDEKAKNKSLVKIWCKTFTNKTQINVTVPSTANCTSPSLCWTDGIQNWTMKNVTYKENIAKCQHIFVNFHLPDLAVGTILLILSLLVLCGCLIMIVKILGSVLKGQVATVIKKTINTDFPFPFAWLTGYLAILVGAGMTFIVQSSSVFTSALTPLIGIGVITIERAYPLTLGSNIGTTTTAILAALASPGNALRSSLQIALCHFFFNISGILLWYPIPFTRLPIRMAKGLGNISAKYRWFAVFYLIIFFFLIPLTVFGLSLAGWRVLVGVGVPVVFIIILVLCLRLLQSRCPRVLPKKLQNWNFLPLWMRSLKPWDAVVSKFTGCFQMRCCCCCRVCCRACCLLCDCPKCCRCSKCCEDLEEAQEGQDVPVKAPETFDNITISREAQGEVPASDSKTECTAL
How it was run: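 HEK293 cells transiently transfected with human NaP2b (Thr inserted after residue 37, N39D), endogenous PiT transport pharmacologically silenced. Sodium or choline buffer, pH 7.4, with 100 uM KH2PO4, 33P orthophosphate and compound (0.1 nM–30 uM, twelve concentrations, duplicate). 3-30 min at room temperature, scintillation counting, pIC50 derived.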

| pIC50 (rat NaP2b (SLC34A2) [3]) | IC50 (human NaP2b (SLC34A2)) | SMILES | IC50 (rat NaP2b (SLC34A2) [1]) | % Decrease in serum [Pi] [2] | Serum increase [Pi] mg/dL from baseline low PI state ([2]; mean ± SD, vehicle 5.0 ± 1.3) | Competitive with respect to Pi? (NaPi2b) |
| --- | --- | --- | --- | --- | --- | --- |
| – | – | O=C(Nc1ccc(N2CCCCC2)cc1C(=O)N/N=C/c1ccc(Cl)c(C(F)(F)F)c1)c1cccc(Cn2cnc(CCO)c2)c1 [Ex. 47, (E)-N-(2-(2-(4-chloro-3-(trifluoromethyl)benzylidene)hydrazinecarbonyl)-4-(piperidin-1-yl)phenyl)-3-((4-(2-hydroxyethyl)-1H-imidazol-1-yl)methyl)benzamide] | 100 to 794 nM | 28% | 3.6 ± 1.1 mg/dL | – |
| > 6.00 | – | O=C(O)Cc1cccc(SCc2cccc(C(=O)Nc3ccc(N4CCCCC4)cc3-c3cc(C(=O)NCc4cccc(C(F)(F)F)c4)ccn3)c2)c1 [Example 8.18] | – | – | – | No |
| 4.50 to 5.00 | – | O=C(O)c1cccc(S(=O)(=O)Cc2cccc(C(=O)Nc3ccc(N4CCCCC4)cc3-c3cc(C(=O)NCc4cccc(C(F)(F)F)c4)ccn3)c2)c1 [Example 8.26, 3-((3-((4-(Piperidin-1-yl)-2-(4-((3-(trifluoromethyl)benzyl)carbamoyl)pyridin-2-yl)phenyl)carbamoyl)benzyl)sulfonyl)benzoic acid] | – | – | – | No |
| 5.10 to 6.00 | < 1000 nM | O=C(O)CCOCCOCCOCCNC(=O)c1cccc(SCc2cccc(C(=O)Nc3ccc(N4CCCCC4)cc3-c3cc(C(=O)NCc4cccc(C(F)(F)F)c4)ccn3)c2)c1 [Example 10.1, 1-oxo-1-(3-(3-(4-(piperidin-1-yl)-2-(4-(3-(trifluoromethyl)benzyl-carbamoyl)pyridin-2-yl)phenylcarbamoyl)benzylthio)phenyl)-5,8,11-trioxa-2-azatetradecan-14-oic acid] | – | – | – | No |
